Laboratory results as given in the NIST ThermoML archive (doi:10.1016/j.jct.2004.09.018).

Assays:
[1] = Crystal
[2] = Molar enthalpy of transition or fusion; conditions: Crystal
[3] = molar heat capacity at constant pressure; conditions: 101.33 kPa

O=Cc1ccc([N+](=O)[O-])cc1[N+](=O)[O-] [2,4-dinitrobenzaldehyde]
Conditions | Molar enthalpy of transition or fusion [kcal/mol] | Triple point temperature [K]
[1] | – | 344.91
[2] | 5.06 | –

[3]
Conditions | molar heat capacity at constant pressure [J/K/mol]
78.06 K, Crystal | 18.67
80 K, Crystal | 19.77
80.91 K, Crystal | 20.32
82.54 K, Crystal | 21.07
85.26 K, Crystal | 22.24
87.46 K, Crystal | 22.9
89.5 K, Crystal | 23.64
91.38 K, Crystal | 24.46
93.21 K, Crystal | 24.83
94.98 K, Crystal | 25.29
96.7 K, Crystal | 25.84
98.42 K, Crystal | 26.88
100.08 K, Crystal | 26.98
101.76 K, Crystal | 28.11
103.39 K, Crystal | 28.44
105 K, Crystal | 28.62
106.58 K, Crystal | 28.9
108.14 K, Crystal | 29.07
109.68 K, Crystal | 30.37
111.2 K, Crystal | 30.49
112.69 K, Crystal | 30.46
114.18 K, Crystal | 31.08
115.64 K, Crystal | 31.43
117.09 K, Crystal | 32.01
118.49 K, Crystal | 32.5
119.86 K, Crystal | 32.88
121.24 K, Crystal | 33.37
122.59 K, Crystal | 33.47
123.93 K, Crystal | 34.53
125.27 K, Crystal | 34.53
126.61 K, Crystal | 35.11
127.96 K, Crystal | 35.79
129.3 K, Crystal | 36.37
130.69 K, Crystal | 36.18
132.09 K, Crystal | 36.27
133.43 K, Crystal | 37.34
134.81 K, Crystal | 37.63
136.17 K, Crystal | 37.14
137.59 K, Crystal | 37.92
138.97 K, Crystal | 37.37
140.34 K, Crystal | 37.47
141.69 K, Crystal | 37.08
143.04 K, Crystal | 37.04
144.37 K, Crystal | 37.54
145.68 K, Crystal | 37.82
146.97 K, Crystal | 37.82
148.25 K, Crystal | 38.92
149.52 K, Crystal | 39.16
150.78 K, Crystal | 38.26
152.03 K, Crystal | 39.82
153.25 K, Crystal | 40.53
154.49 K, Crystal | 40.73
155.72 K, Crystal | 40.92
156.96 K, Crystal | 41.6
158.19 K, Crystal | 41.6
159.41 K, Crystal | 42.39
160.67 K, Crystal | 43.2
161.9 K, Crystal | 43.2
163.15 K, Crystal | 43.8
164.37 K, Crystal | 44.11
165.6 K, Crystal | 44.7
166.79 K, Crystal | 45.28
167.97 K, Crystal | 45.57
169.2 K, Crystal | 45.95
171.64 K, Crystal | 46.17
175.32 K, Crystal | 46.7
178.53 K, Crystal | 47.5
181.57 K, Crystal | 47.76
184.51 K, Crystal | 49.49
187.41 K, Crystal | 49.49
190.27 K, Crystal | 51.22
193.04 K, Crystal | 52.12
195.57 K, Crystal | 52.73
198.42 K, Crystal | 54.38
201.09 K, Crystal | 55.42
202.7 K, Crystal | 55.05
206.17 K, Crystal | 56.4
208.82 K, Crystal | 57.15
211.47 K, Crystal | 56.9
214.01 K, Crystal | 58.62
216.52 K, Crystal | 60.85
219.02 K, Crystal | 60.11
221.6 K, Crystal | 60.6
224.29 K, Crystal | 61.84
226.79 K, Crystal | 62.82
229.3 K, Crystal | 62.82
231.81 K, Crystal | 64.06
234.37 K, Crystal | 65.17
236.8 K, Crystal | 66.36
239.16 K, Crystal | 67.38
241.63 K, Crystal | 68.9
243.96 K, Crystal | 70.6
246.15 K, Crystal | 72.46
248.51 K, Crystal | 72.63
250.87 K, Crystal | 73.64
253.13 K, Crystal | 75.85
255.45 K, Crystal | 78.05
257.75 K, Crystal | 79.41
260 K, Crystal | 80.42
262.29 K, Crystal | 81.1
265.37 K, Crystal | 83.47
266.84 K, Crystal | 84.66
269.06 K, Crystal | 86.52
271.28 K, Crystal | 88.55
273.5 K, Crystal | 90.93
275.72 K, Crystal | 93.3
277.9 K, Crystal | 94.99
280.12 K, Crystal | 96.35
282.24 K, Crystal | 98.88
284.45 K, Crystal | 100.75
286.53 K, Crystal | 101.94
288.75 K, Crystal | 103.12
290.86 K, Crystal | 105.15
293.05 K, Crystal | 105.66
295.09 K, Crystal | 108.2
297.17 K, Crystal | 110.92
299.24 K, Crystal | 112.78
301.25 K, Crystal | 116
303.25 K, Crystal | 118.56
305.33 K, Crystal | 120.3
307.3 K, Crystal | 122.62
309.27 K, Crystal | 124.17
311.25 K, Crystal | 125.72
313.22 K, Crystal | 128.04
315.24 K, Crystal | 130.3
317.17 K, Crystal | 132.69
319.12 K, Crystal | 135.33
321.07 K, Crystal | 136.59
322.98 K, Crystal | 138.88
324.91 K, Crystal | 141.63
326.82 K, Crystal | 144.41
328.67 K, Crystal | 147.92
330.55 K, Crystal | 151.7
332.43 K, Crystal | 154.77
334.19 K, Crystal | 158.54
335.92 K, Crystal | 161.76
337.65 K, Crystal | 165.54
339.38 K, Crystal | 169.32
341.03 K, Crystal | 173.09
348.1 K, Liquid | 300.29
349.69 K, Liquid | 307.08
351.29 K, Liquid | 313.48
352.84 K, Liquid | 317.48
354.37 K, Liquid | 327.47
355.87 K, Liquid | 334.28
357.34 K, Liquid | 342.27
358.75 K, Liquid | 344.27
360.22 K, Liquid | 349.07
361.51 K, Liquid | 354.26
362.75 K, Liquid | 357.86
363.93 K, Liquid | 367.87
365.07 K, Liquid | 373.86
366.13 K, Liquid | 381.06
367.12 K, Liquid | 389.86
